pIC50: −log10 of the molar value.

In this assay the target is T1, Human PDE10 (Homo sapiens, UniProt Q9Y233).
T1 construct: purchased BPA Bioscience (so in the source)
T1 sequence (Q9Y233 whole entry): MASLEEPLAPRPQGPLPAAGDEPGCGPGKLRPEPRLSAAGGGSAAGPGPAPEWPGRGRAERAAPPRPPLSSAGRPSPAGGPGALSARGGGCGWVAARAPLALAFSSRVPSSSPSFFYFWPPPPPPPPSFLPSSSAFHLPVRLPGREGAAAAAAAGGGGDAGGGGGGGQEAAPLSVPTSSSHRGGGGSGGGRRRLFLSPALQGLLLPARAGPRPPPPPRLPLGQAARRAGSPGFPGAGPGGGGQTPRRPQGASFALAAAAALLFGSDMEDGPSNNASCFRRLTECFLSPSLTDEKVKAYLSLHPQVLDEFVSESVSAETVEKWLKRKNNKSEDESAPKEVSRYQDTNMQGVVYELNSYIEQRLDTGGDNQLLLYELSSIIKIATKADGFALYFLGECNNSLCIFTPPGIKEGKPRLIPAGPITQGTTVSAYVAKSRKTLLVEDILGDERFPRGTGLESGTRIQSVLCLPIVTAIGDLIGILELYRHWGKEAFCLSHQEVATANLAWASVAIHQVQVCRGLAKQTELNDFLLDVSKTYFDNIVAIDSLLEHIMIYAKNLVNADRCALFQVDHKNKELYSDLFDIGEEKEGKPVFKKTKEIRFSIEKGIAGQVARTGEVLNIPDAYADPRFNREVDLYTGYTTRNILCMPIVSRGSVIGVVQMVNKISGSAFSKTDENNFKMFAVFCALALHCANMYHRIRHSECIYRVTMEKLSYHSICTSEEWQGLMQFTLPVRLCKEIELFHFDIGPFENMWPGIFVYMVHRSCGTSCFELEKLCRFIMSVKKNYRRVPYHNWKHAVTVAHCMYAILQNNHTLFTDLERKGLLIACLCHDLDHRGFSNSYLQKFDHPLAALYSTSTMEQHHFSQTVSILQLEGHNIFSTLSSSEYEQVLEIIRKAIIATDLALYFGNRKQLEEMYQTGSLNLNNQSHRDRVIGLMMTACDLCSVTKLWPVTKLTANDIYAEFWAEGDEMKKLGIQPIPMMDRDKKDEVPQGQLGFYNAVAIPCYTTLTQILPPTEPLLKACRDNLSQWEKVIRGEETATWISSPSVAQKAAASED
Description: Human PDE10 inhibitory effect (IMAP TR-FRET enzyme inhibition assay). To be noted: PDE10 inhibitory activity, cAMP substrate. Type of assay: biochemical. On the procedure: (Evaluation of Enzyme Inhibitory Activity: Human PDE10 Inhibitory Effect)
IMAP TR-FRET Phosphodiersterase Evaluation Assay Kit (Molecular Device) was used for the measurement. Ten μL of a diluted test compound having each concentration and 5 μL of the enzyme PDE10 (BPA Bioscience) that had been diluted to 2 ng/mL with 1×IMAP Reaction Buffer (prepared with 5× included with the kit, 10 mM Tris-HCl, pH=7.2, 10 mM MgCl2, 0.05% NaN3, and 0.1% BSA) containing 0.1% BSA were added to a 384-well plate (Corning). The obtained mixture was then pre-incubated at room temperature for 5 minutes. Thereafter, 5 μL of cAMP substrate solution which was included with the kit and diluted to 400 nM with 1×IMAP Reaction Buffer containing 0.1% BSA, was added to the reaction solution, and the obtained mixture was reacted at room temperature for 60 minutes. Thereafter, 60 μL of an IMAP TR-FRET Binding solution included with the kit was further added to the reaction solution, and the obtained mixture was then left for 3 hours or more. Subsequently, using ARVO SX (PerkinElmer), the fluorescent intensity of Terbium (Emission=490 nm) and TR-FRET (Emission=520 nm) in the reaction solution were measured at an excitation wavelength of 340 nm, so as to calculate the amount of the generated 5′-AMP. The count of a well to which a solvent had been added instead of the test compound was set at 0%, and the count of a well to which the enzyme PDE10 had not been added was set at 100%. Thus, the inhibitory activity of each test compound was calculated.
The PDE10 inhibitory activity of the test compound was indicated with an IC50 value. […] The test compounds are shown in Table 3 (Table 3-1 and Table 3-2).
A general note: Time-resolved FRET reads energy transfer from a long-lived donor to a nearby acceptor.
`C[C@H]1CCCN1c1nc2cc(NC(=O)c3c(-c4cccc(C(F)(F)F)n4)cnn3C)ccn2n1` [Example 4.3, (S)-1-methyl-N-(2-(2-methylpyrrolidin-1-yl)-[1,2,4]triazolo[1,5-a]pyridin-7-yl)-4-(6-(trifluoromethyl)pyridin-2-yl)-1H-pyrazole-5-carboxamide]: the pIC50 is above 8.30.

On to `C[C@H]1CCCN1c1nc2cc(NC(=O)c3c(-c4nc(C(F)(F)F)cs4)cnn3C)ccn2n1` [Example 4.10], for which the pIC50 is above 8.30.

Compound `Cc1cc(C)nc(-c2cnn(C)c2C(=O)Nc2ccn3nc(N4CC[C@H](F)C4)nc3c2)c1` [Example 4.20, (S)-4-(4,6-dimethylpyridin-2-yl)-N-(2-(3-fluoropyrrolidin-1-yl)-[1,2,4]triazolo[1,5-a]pyridin-7-yl)-1-methyl-1H-pyrazole-5-carboxamide] had a negative-log IC50 (pIC50) above 8.30.

Turning to `Cc1ccnc(-c2cnn(C)c2C(=O)Nc2ccn3nc(N4CCCC4)nc3c2)c1` [Example 4.30, 1-methyl-4-(4-methylpyridin-2-yl)-N-(2-(pyrrolidin-1-yl)-[1,2,4]triazolo[1,5-a]pyridin-7-yl)-1H-pyrazole-5-carboxamide], the negative-log IC50 (pIC50) is above 8.30.

Take `C[C@@H]1CN(c2nc3cc(NC(=O)c4c(-c5nc(C(F)F)c(Cl)s5)cnn4C)ccn3n2)C[C@H](C)O1` [Example 4.36, 4-(5-chloro-4-(difluoromethyl)thiazol-2-yl)-N-(2-((2S,6R)-2,6-dimethylmorpholino)-[1,2,4]triazolo[1,5-a]pyridin-7-yl)-1-methyl-1H-pyrazole-5-carboxamide]: the pIC50 is 7.00 to 8.30.

`Cc1sc(-c2cnn(C)c2C(=O)NC2CCn3nc(-c4ccccc4)nc3C2)nc1C(F)F` (stereo not drawn) [Example 5.1, 4-(4-(difluoromethyl)-5-methylthiazol-2-yl)-1-methyl-N-(2-phenyl-5,6,7,8-tetrahydro-[1,2,4]triazolo[1,5-a]pyridin-7-yl)-1H-pyrazole-5-carboxamide]: the negative logarithm of the IC50 (pIC50) is above 8.30.

`Cn1ncc(-c2nc(C(F)F)cs2)c1C(=O)NC1CCn2nc(-c3ccc(F)cc3)nc2C1` (stereo not drawn) [Example 5.2, 4-(4-(difluoromethyl)thiazol-2-yl)-N-(2-(4-fluorophenyl)-5,6,7,8-tetrahydro-[1,2,4]triazolo[1,5-a]pyridin-7-yl)-1-methyl-1H-pyrazole-5-carboxamide] had a negative-log IC50 (pIC50) of 7.00 to 8.30.

As for `Cn1ncc(-c2nc(C(F)F)c(Cl)s2)c1C(=O)NC1CCn2nc(-c3ccc(F)cc3)nc2C1` (stereo not drawn) [Example 5.3, 4-(5-chloro-4-(difluoromethyl)thiazol-2-yl)-N-(2-(4-fluorophenyl)-5,6,7,8-tetrahydro-[1,2,4]triazolo[1,5-a]pyridin-7-yl)-1-methyl-1H-pyrazole-5-carboxamide], the negative-log IC50 (pIC50) is above 8.30.

`Cc1nc(-c2cnn(C)c2C(=O)NC2CCn3nc(-c4ccccc4)nc3C2)sc1C` (stereo not drawn) [Example 5.4, 4-(4,5-dimethylthiazol-2-yl)-1-methyl-N-(2-phenyl-5,6,7,8-tetrahydro-[1,2,4]triazolo[1,5-a]pyridin-7-yl)-1H-pyrazole-5-carboxamide]: the negative logarithm of the IC50 (pIC50) was above 8.30.

Take `Cn1ncc(-c2nc(C(F)F)c(C3CC3)s2)c1C(=O)NC1CCn2nc(-c3ccccc3)nc2C1` (stereo not drawn) [Example 5.8, 4-(5-cyclopropyl-4-(difluoromethyl)thylthiazol-2-yl)-1-methyl-N-(2-phenyl-5,6,7,8-tetrahydro-[1,2,4]triazolo[1,5-a]pyridin-7-yl)-1H-pyrazole-5-carboxamide]: the pIC50 was 7.00 to 8.30.

With `Cn1ncc(-c2nc(C(F)(F)F)cs2)c1C(=O)NC1CCn2nc(-c3ccccc3)nc2C1` (stereo not drawn) [Example 5.9], the negative-log IC50 (pIC50) is 7.00 to 8.30.

Regarding `Cn1ncc(-c2nc(C#N)cs2)c1C(=O)NC1CCn2nc(-c3ccccc3)nc2C1` (stereo not drawn) [Example 5.10, 4-(4-cyanothiazol-2-yl)-1-methyl-N-(2-phenyl-5,6,7,8-tetrahydro-[1,2,4]triazolo[1,5-a]pyridin-7-yl)-1H-pyrazole-5-carboxamide], the pIC50 is 7.00 to 8.30.

Turning to `CCOCCc1sc(-c2cnn(C)c2C(=O)NC2CCn3nc(-c4ccccc4)nc3C2)nc1C` (stereo not drawn) [Example 5.11, 4-(5-(2-ethoxyethyl)-4-methylthiazol-2-yl)-1-methyl-N-(2-phenyl-5,6,7,8-tetrahydro-[1,2,4]triazolo[1,5-a]pyridin-7-yl)-1H-pyrazole-5-carboxamide], the pIC50 is 7.00 to 8.30.

The compound `CCc1nnc(-c2cnn(C)c2C(=O)NC2CCn3nc(-c4ccccc4)nc3C2)s1` (stereo not drawn) [Example 5.12, 4-(5-ethyl-1,3,4-thiadiazol-2-yl)-1-methyl-N-(2-phenyl-5,6,7,8-tetrahydro-[1,2,4]triazolo[1,5-a]pyridin-7-yl)-1H-pyrazole-5-carboxamide] showed a pIC50 of 7.00 to 8.30.

Regarding `Cc1nc(-c2cnn(C)c2C(=O)NC2CCn3nc(-c4ccccc4)nc3C2)c(Br)s1` (stereo not drawn) [Example 5.13, 4-(5-bromo-2-methylthiazol-4-yl)-1-methyl-N-(2-phenyl-5,6,7,8-tetrahydro-[1,2,4]triazolo[1,5-a]pyridin-7-yl)-1H-pyrazole-5-carboxamide], the pIC50 was 7.00 to 8.30.

`Cc1cnc(C)c(-c2cnn(C)c2C(=O)NC2CCn3nc(-c4ccccc4)nc3C2)n1` (stereo not drawn) [Example 5.14, 4-(3,6-dimethylpyrazin-2-yl)-1-methyl-N-(2-phenyl-5,6,7,8-tetrahydro-[1,2,4]triazolo[1,5-a]pyridin-7-yl)-1H-pyrazole-5-carboxamide] showed a negative logarithm of the IC50 (pIC50) of 7.00 to 8.30.

With `Cc1nsc(-c2cnn(C)c2C(=O)NC2CCn3nc(-c4ccccc4)nc3C2)n1` (stereo not drawn) [Example 5.15, 1-methyl-4-(3-methyl-1,2,4-thiadiazol-5-yl)-N-(2-phenyl-5,6,7,8-tetrahydro-[1,2,4]triazolo[1,5-a]pyridin-7-yl)-1H-pyrazole-5-carboxamide], the pIC50 is 7.00 to 8.30.

In the case of `COC[C@H]1CCCN1c1nc2n(n1)CCC(NC(=O)c1c(-c3nc(C(F)F)cs3)cnn1C)C2` (stereo partly drawn) [Example 5.16, 4-(4-(difluoromethyl)thiazol-2-yl)-N-(2-((R)-2-(methoxymethyl)pyrrolidin-1-yl)-5,6,7,8-tetrahydro-[1,2,4]triazolo[1,5-a]pyridin-7-yl)-1-methyl-1H-pyrazole-5-carboxamide], the pIC50 was 7.00 to 8.30.

With `Cc1csc(-c2cnn(C)c2C(=O)NC2CCn3nc(-c4ccccc4)nc3C2)n1` (stereo not drawn) [Example 5.18, 1-methyl-4-(4-methylthiazol-2-yl)-N-(2-phenyl-5,6,7,8-tetrahydro-[1,2,4]triazolo[1,5-a]pyridin-7-yl)-1H-pyrazole-5-carboxamide], the negative-log IC50 (pIC50) is 7.00 to 8.30.

Consider `Cc1cccc(-c2cnn(C)c2C(=O)NC2CCn3nc(-c4ccccc4)nc3C2)n1` (stereo not drawn) [Example 5.19, 1-methyl-4-(6-methylpyridin-2-yl)-N-(2-phenyl-5,6,7,8-tetrahydro-[1,2,4]triazolo[1,5-a]pyridin-7-yl)-1H-pyrazole-5-carboxamide], for which the negative logarithm of the IC50 (pIC50) was 7.00 to 8.30.

For `Cc1ccnc(-c2cnn(C)c2C(=O)NC2CCn3nc(-c4ccccc4)nc3C2)c1` (stereo not drawn) [Example 5.20, 1-methyl-4-(4-methylpyridin-2-yl)-N-(2-phenyl-5,6,7,8-tetrahydro-[1,2,4]triazolo[1,5-a]pyridin-7-yl)-1H-pyrazole-5-carboxamide], the pIC50 was 7.00 to 8.30.

The compound `Cn1ncc(-c2cccc(C(F)(F)F)n2)c1C(=O)NC1CCn2nc(-c3ccccc3)nc2C1` (stereo not drawn) [Example 5.21, 1-methyl-N-(2-phenyl-5,6,7,8-tetrahydro-[1,2,4]triazolo[1,5-a]pyridin-7-yl)-4-(6-(trifluoromethyl)pyridin-2-yl)-1H-pyrazole-5-carboxamide] had a pIC50 of 7.00 to 8.30.

`Cc1cccnc1-c1cnn(C)c1C(=O)NC1CCn2nc(-c3ccccc3)nc2C1` (stereo not drawn) [Example 5.22, 1-methyl-4-(3-methylpyridin-2-yl)-N-(2-phenyl-5,6,7,8-tetrahydro-[1,2,4]triazolo[1,5-a]pyridin-7-yl)-1H-pyrazole-5-carboxamide] had a pIC50 of 7.00 to 8.30.

`Cn1ncc(-c2cc(F)ccn2)c1C(=O)NC1CCn2nc(-c3ccccc3)nc2C1` (stereo not drawn) [Example 5.23, 4-(4-fluoropyridin-2-yl)-1-methyl-N-(2-phenyl-5,6,7,8-tetrahydro-[1,2,4]triazolo[1,5-a]pyridin-7-yl)-1H-pyrazole-5-carboxamide] showed a negative logarithm of the IC50 (pIC50) of 7.00 to 8.30.

On to `Cn1ncc(-c2ccc(F)cn2)c1C(=O)NC1CCn2nc(-c3ccccc3)nc2C1` (stereo not drawn) [Example 5.24, 4-(5-fluoropyridin-2-yl)-1-methyl-N-(2-phenyl-5,6,7,8-tetrahydro-[1,2,4]triazolo[1,5-a]pyridin-7-yl)-1H-pyrazole-5-carboxamide], for which the pIC50 was 7.00 to 8.30.

In turn, `COc1ccnc(-c2cnn(C)c2C(=O)NC2CCn3nc(-c4ccccc4)nc3C2)c1` (stereo not drawn) [Example 5.25, 4-(4-methoxypyridin-2-yl)-1-methyl-N-(2-phenyl-5,6,7,8-tetrahydro-[1,2,4]triazolo[1,5-a]pyridin-7-yl)-1H-pyrazole-5-carboxamide] showed a pIC50 of 7.00 to 8.30.

The compound `Cc1ccc(-c2cnn(C)c2C(=O)NC2CCn3nc(-c4ccccc4)nc3C2)nc1` (stereo not drawn) [Example 5.26, 1-methyl-4-(5-methylpyridin-2-yl)-N-(2-phenyl-5,6,7,8-tetrahydro-[1,2,4]triazolo[1,5-a]pyridin-7-yl)-1H-pyrazole-5-carboxamide] gave a pIC50 of 7.00 to 8.30.

What is called pIC50 is the IC50 on a negative log10 scale, so that one unit is a factor of ten. High values mean a low IC50, low ones a high IC50.

These data come from patent US8980888B2, “Pyrazole derivative” (Mochida Pharmaceutical Co., Ltd., priority 2013, dated 2015).
